Laboratory results published in patent publication US12319655B2, “RAF kinase inhibitors and methods of use thereof” (Deciphera Pharmaceuticals, LLC, priority 2021, dated 2025).

How the values were obtained:
[1] = target: B-Raf (V600E) (SEQ. ID NO: 4) kinase (Homo sapiens (Human), UniProt P15056, V600E); experiment: Biochemical Assay for B-Raf (V600E) (1); settings: Table J, BRAF V600E, biochemical assay (1); read-out: BRAF VE (1)
In short: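 Serially diluted compounds tested against 0.03 nM enzyme with 30.1 nM MEK substrate and 1 mM ATP (Tris pH 7.5, 15 mM MgCl2), ATP use coupled to NADH loss via PK/LDH. A340 monitored continuously 6 h, 30 °C; IC50 fitted (four-parameter) from the 3–4 h rate versus no-compound and known-inhibitor controls.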

[2] = target: B-Raf kinase (SEQ. ID NO: 2) (Homo sapiens (Human), UniProt P15056); experiment: Biochemical Assay for B-Raf (1); settings: Table J, biochemical assay (1); read-out: BRAF (1)
B-Raf kinase (SEQ. ID NO: 2), sequence (P15056 416-766): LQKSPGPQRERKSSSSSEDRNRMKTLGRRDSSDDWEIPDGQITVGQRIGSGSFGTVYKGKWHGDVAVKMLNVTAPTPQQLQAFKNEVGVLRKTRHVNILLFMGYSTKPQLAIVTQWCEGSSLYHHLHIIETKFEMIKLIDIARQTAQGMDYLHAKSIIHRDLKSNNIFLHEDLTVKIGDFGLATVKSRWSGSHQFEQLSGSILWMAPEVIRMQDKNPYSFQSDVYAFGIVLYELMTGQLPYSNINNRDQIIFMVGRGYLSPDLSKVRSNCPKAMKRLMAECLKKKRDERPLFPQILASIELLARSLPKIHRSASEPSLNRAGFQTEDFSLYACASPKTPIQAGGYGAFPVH
In short: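 IC50 derived by four-parameter sigmoidal fit of percent inhibition, normalised to uninhibited and reference-inhibitor controls, using reaction rates over 4–5 h. Coupled spectrophotometric readout (NADH loss at 340 nm, 6 h, 30° C.); 1 mM ATP, 30.1 nM MEK, 0.13 nM B-Raf, pH 7.5 Tris buffer, 1% DMSO.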

[3] = target: A-Raf kinase (SEQ. ID No: 1) (Homo sapiens (Human), UniProt P10398, Y301D/Y302D); experiment: Biochemical Assay for A-Raf (1); settings: Table J, biochemical assay (1); read-out: ARAF (1)
A-Raf kinase (SEQ. ID No: 1), sequence (P10398 other isoform, or with tags, fused parts or gaps Y301D (already in the parent)/Y302D (already in the parent)): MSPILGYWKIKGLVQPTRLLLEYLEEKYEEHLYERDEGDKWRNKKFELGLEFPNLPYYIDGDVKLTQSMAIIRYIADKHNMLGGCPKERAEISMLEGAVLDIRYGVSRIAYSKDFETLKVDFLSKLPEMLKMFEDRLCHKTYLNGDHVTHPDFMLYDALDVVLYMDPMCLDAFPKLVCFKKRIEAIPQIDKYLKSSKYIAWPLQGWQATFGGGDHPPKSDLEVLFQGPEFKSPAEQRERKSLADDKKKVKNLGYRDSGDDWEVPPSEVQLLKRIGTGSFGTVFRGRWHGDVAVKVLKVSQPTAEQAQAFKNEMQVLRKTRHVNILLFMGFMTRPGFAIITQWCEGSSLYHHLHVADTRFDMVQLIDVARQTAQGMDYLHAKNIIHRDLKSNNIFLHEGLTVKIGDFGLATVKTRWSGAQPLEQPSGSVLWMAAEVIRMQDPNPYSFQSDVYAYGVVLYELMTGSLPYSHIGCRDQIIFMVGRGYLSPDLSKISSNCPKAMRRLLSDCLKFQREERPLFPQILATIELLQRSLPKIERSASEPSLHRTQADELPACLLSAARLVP
In short: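 IC50 values were derived by four-parameter sigmoidal fitting of percent inhibition, calculated from reaction rates over the 4–5 h window. Absorbance at 340 nm was tracked for 6 h at 30 °C via coupled PK/LDH NADH depletion. Conditions: 1 mM ATP, 30.1 nM MEK substrate, 5.55 nM A-Raf (Y301D/Y302D), Tris pH 7.5, 1% DMSO.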

[4] = system: H2405 cells; experiment: H2405 Cell Proliferation Assay (2); format: cell-based; settings: Homo sapiens, NCI-H2405
Experimental: H2405 Cell Proliferation Assay (2)
H2405 cells (catalog #CRL-5994) are obtained from the American Type Culture Collect (ATTC, Manassas, VA). Briefly, cells were grown in RPMI 1640 supplemented with 5% characterized fetal bovine serum (Invitrogen, Carlsbad, CA) and 1% Penicillin/Streptomycin/L-Glutamine at 37° C., 5% CO2, and 95% humidity. Cells are expanded until reaching 70-95% confluency at which point they are sub-cultured or harvested for assay use. A serial dilution of test compound is dispensed into a 384-well black clear bottom plate in triplicate. Seven hundred fifty cells are added per well in 50 μL complete growth medium in the 384-well plate. Plates are incubated for 67-72 h at 37° C., 5% CO2, and 95% humidity. At the end of the incubation, 10 μL of a 440 μM solution of resazurin (Sigma, St. Louis, MO) in PBS is added to each well of the plate and plates are incubated for an additional 5-6 h at 37° C., 5% CO2, and 95% humidity. Plates are read on a Synergy2 or equivalent reader (Biotek, Winooski VT) using an excitation of 540 nm and an emission of 600 nm. Data is analyzed using Prism software (GraphPad, San Diego, CA) to calculate IC50 values

B-Raf (V600E) (SEQ. ID NO: 4) kinase, sequence (P15056 416-766 V600E): as the sequence (P15056 416-766) above, with V185E counted along it

Row | SMILES | IC50 [1] [nM] | IC50 [2] [nM] | IC50 [3] [nM] | IC50 [4] [nM]
1 | COC(=O)Nc1cc(-c2cccc(-c3cc(NC(=O)c4ccnc(C(C)(C)F)c4)cnc3C)c2)ncn1 [Example 404] | ≤ 100 | 100 to 500 | 1000 to 10000 | –
2 | COC(=O)Nc1cc(-c2cncc(-c3cc(NC(=O)c4ccnc(C5(C#N)CC5)c4)ccc3C)c2)ncn1 [Example 405] | ≤ 100 | ≤ 100 | 1000 to 10000 | –
3 | Cc1ncc(NC(=O)c2ccnc(C(C)(C)F)c2)cc1-c1cncc(-c2cc(NC(=O)C3CC3)ncn2)c1 [Example 406] | ≤ 100 | ≤ 100 | 500 to 1000 | –
4 | Cc1ncc(NC(=O)c2ccnc(C(C)(C)C#N)c2)cc1-c1cccc(-c2cnc3ccccn23)c1 [Example 407] | 100 to 500 | 500 to 1000 | 1000 to 10000 | –
5 | CNC(=O)c1cc(-c2cncc(-c3cc(NC(=O)c4ccnc(C(C)(C)F)c4)c(F)cc3C)c2)ccn1 [Example 408] | ≤ 100 | 100 to 500 | 1000 to 10000 | –
6 | COC(=O)Nc1cc(-c2cnnc(-c3cc(NC(=O)c4cn(C(C)C)nn4)ccc3C)c2)ccn1 [Example 409] | 500 to 1000 | 100 to 500 | 1000 to 10000 | –
7 | Cc1ncc(NC(=O)c2ccnc(C(C)(C)C#N)c2)cc1-c1cncc(-c2cc(NC(=O)C3CC3)ncn2)c1 [Example 410] | ≤ 100 | ≤ 100 | 1000 to 10000 | –
8 | Cc1ccc(NC(=O)c2ccnc(C(C)(C)F)c2)cc1-c1cncc(-c2cc(N)ncn2)c1 [Example 411] | ≤ 100 | ≤ 100 | 1000 to 10000 | –
9 | Cc1ccc(NC(=O)c2cn(C(C)C)nn2)cc1-c1cncc(-c2cc(NC(=O)C3CC3)ncn2)c1 [Example 412] | ≤ 100 | ≤ 100 | 100 to 500 | –
10 | CNC(=O)c1cc(-c2cncc(-c3cc(NC(=O)c4ccnc(C(C)(C)F)c4)ccc3C)c2)ccn1 [Example 413] | ≤ 100 | ≤ 100 | 1000 to 10000 | –
11 | COC(=O)Nc1cc(-c2cncc(-c3cc(NC(=O)c4ccnc(C(C)(C)C#N)c4)ccc3C)c2)ncn1 [Example 414] | ≤ 100 | ≤ 100 | 1000 to 10000 | –
12 | COC(=O)Nc1cc(-c2cccc(-c3cc(NC(=O)Cn4cc(C(C)C)nn4)cnc3C)c2)ccn1 [Example 415] | 1000 to 10000 | 500 to 1000 | 1000 to 10000 | –
13 | COC(=O)Nc1cc(-c2cc(-c3cc(NC(=O)c4ccnc(C(C)(C)F)c4)ccc3C)nc(C)n2)ccn1 [Example 416] | ≤ 100 | ≤ 100 | 1000 to 10000 | –
14 | Cc1ccc(NC(=O)c2ccnc(C(C)(C)F)c2)cc1-c1cncc(-c2ccnc(NC(=O)C3CC3)c2)c1 [Example 417] | ≤ 100 | ≤ 100 | 100 to 500 | –
15 | Cc1cc(F)c(NC(=O)c2ccnc(C(C)(C)C#N)c2)cc1-c1cncc(-c2ccnc(NC(=O)C3CC3)c2)c1 [Example 418] | ≤ 100 | ≤ 100 | 500 to 1000 | –
16 | Cc1ccc(NC(=O)c2ccnc(C(C)(F)F)c2)cc1-c1cncc(-c2cc(NC(=O)C3CC3)ncn2)c1 [Example 419] | ≤ 100 | ≤ 100 | 500 to 1000 | –
17 | Cc1ccc(NC(=O)c2ccnc(C(C)(C)C#N)c2)cc1-c1cncc(-c2cc(NC(=O)C(C)C)ncn2)c1 [Example 420] | ≤ 100 | ≤ 100 | 1000 to 10000 | –
18 | Cc1ccc(NC(=O)c2cc(C3CC3)on2)cc1-c1cncc(-c2cc(NC(=O)C3CC3)ncn2)c1 [Example 421] | ≤ 100 | ≤ 100 | 1000 to 10000 | –
19 | Cc1ccc(NC(=O)c2ccnc(C(C)(C)C#N)c2)cc1-c1cncc(-c2cc(N)ncn2)c1 [Example 422] | ≤ 100 | 100 to 500 | 1000 to 10000 | –
20 | Cc1cc(F)c(NC(=O)c2ccnc(C(C)(C)F)c2)cc1-c1cncc(-c2cc(NC(=O)C3CC3)ncn2)c1 [Example 423] | ≤ 100 | ≤ 100 | 1000 to 10000 | –
21 | Cc1cc(F)c(NC(=O)c2ccnc(C(C)(C)C#N)c2)cc1-c1cncc(-c2cc(NC(=O)C3CC3)ncn2)c1 [Example 424] | ≤ 100 | ≤ 100 | 500 to 1000 | –
22 | COC(=O)Nc1cc(-c2cncc(-c3cc(NC(=O)c4ccnc(C(C)(C)F)c4)ccc3C)c2)ncn1 [Example 425] | ≤ 100 | ≤ 100 | 1000 to 10000 | –

Row | SMILES | IC50 [1] [nM] | IC50 [2] [nM] | IC50 [3] [nM] | IC50 [4] [nM]
23 | CNC(=O)c1cc(-c2nccc(-c3cc(NC(=O)c4ccnc(C(C)(C)F)c4)c(F)cc3C)n2)ccn1 [Example 427] | ≤ 100 | 100 to 500 | 1000 to 10000 | –
24 | CNC(=O)c1cc(-c2cc(-c3cc(NC(=O)c4ccnc(C(C)(C)F)c4)ccc3C)nc(C)n2)ccn1 [Example 428] | ≤ 100 | 100 to 500 | 1000 to 10000 | –
25 | Cc1ccc(NC(=O)c2ccnc(C(F)F)c2)cc1-c1cncc(-c2cc(NC(=O)C3CC3)ncn2)c1 [Example 429] | ≤ 100 | ≤ 100 | 100 to 500 | –
26 | Cc1ccc(NC(=O)c2cnn(C3CC3)c2)cc1-c1cncc(-c2cc(NC(=O)C3CC3)ncn2)c1 [Example 430] | ≤ 100 | ≤ 100 | 500 to 1000 | –
27 | Cc1ccc(NC(=O)c2cc(C(C)(C)C)on2)cc1-c1cncc(-c2cc(NC(=O)C3CC3)ncn2)c1 [Example 431] | ≤ 100 | ≤ 100 | 100 to 500 | –
28 | Cc1ccc(NC(=O)c2ccnc(C(C)(C)F)c2)cc1-c1cncc(-c2ccnc3c2CC(=O)N3)c1 [Example 432] | ≤ 100 | ≤ 100 | 1000 to 10000 | –
29 | Cc1ncc(NC(=O)c2ccnc(C(C)(C)F)c2)cc1-c1cncc(-c2ccnc(NC(=O)C3CC3)c2)c1 [Example 433] | ≤ 100 | ≤ 100 | 1000 to 10000 | –
30 | Cc1ccc(NC(=O)c2ccnc(C(C)C)c2)cc1-c1cncc(-c2cc(NC(=O)C3CC3)ncn2)c1 [Example 434] | ≤ 100 | ≤ 100 | 100 to 500 | –
31 | COC(=O)Nc1cc(-c2cncc(-c3cc(NC(=O)c4ccnc(C(C)(C)F)c4)ccc3C)c2)ccn1 [Example 435] | ≤ 100 | ≤ 100 | 1000 to 10000 | –
32 | Cc1ccc(NC(=O)c2cc(C3CC3)n(C)n2)cc1-c1nccc(-c2ccnc(NC(=O)C3CC3)c2)n1 [Example 436] | ≤ 100 | ≤ 100 | 500 to 1000 | –
33 | CNC(=O)c1cc(-c2cc(-c3cc(NC(=O)c4ccnc(C(C)(C)C#N)c4)ccc3OC)ccn2)ccn1 [Example 437] | ≤ 100 | 100 to 500 | 1000 to 10000 | –
34 | COc1ccc(NC(=O)c2ccnc(C(C)(C)C#N)c2)cc1-c1cccc(-c2cc(NC(=O)C3CC3)ncn2)c1 [Example 438] | ≤ 100 | ≤ 100 | 1000 to 10000 | –
35 | CNC(=O)c1cc(-c2cncc(-c3cc(NC(=O)c4ccnc(C(C)(F)F)c4)ccc3C)c2)ncn1 [Example 439] | – | – | – | 100 to 500
36 | CNC(=O)c1cc(-c2cncc(-c3cc(NC(=O)c4ccnc(C(C)(F)F)c4)ccc3C)c2)ccn1 [Example 440] | – | – | – | 100 to 500
37 | CNC(=O)c1cc(-c2cc(-c3cc(NC(=O)c4ccnc(C(C)(F)F)c4)ccc3C)ccn2)ccn1 [Example 441] | – | – | – | ≤ 100
38 | CNC(=O)c1cc(-c2cncc(-c3cc(NC(=O)c4ccnc(C(C)(C)C#N)c4)ccc3C)c2)ccn1 [Example 442] | – | – | – | ≤ 100
39 | CNC(=O)c1cc(-c2cc(-c3cc(NC(=O)c4ccnc(C(C)C)c4)ccc3C)ccn2)ccn1 [Example 443] | – | – | – | ≤ 100
40 | CNC(=O)c1cc(-c2cncc(-c3cc(NC(=O)c4ccnc(C(C)C)c4)ccc3C)c2)ccn1 [Example 445] | – | – | – | ≤ 100
41 | CNC(=O)c1cc(-c2cncc(-c3cc(NC(=O)c4ccnc(C(C)C)c4)ccc3C)c2)ncn1 [Example 446] | – | – | – | 100 to 500
42 | Cc1ccc(NC(=O)c2ccnc(C(C)(C)F)c2)cc1-c1ccnc(-c2ccnc(C(=O)NCCO)c2)c1 [Example 448] | – | – | – | 100 to 500
43 | CNC(=O)c1cc(-c2cc(-c3cc(NC(=O)c4ccnc(C(C)(C)F)c4)ccc3C)cc(OCCO)n2)ccn1 [Example 449] | – | – | – | ≤ 100
44 | Cc1ccc(NC(=O)c2ccnc(C(C)(C)F)c2)cc1-c1ccnc(-c2ccnc(C(=O)NC3CN(C)C3)c2)c1 [Example 450] | – | – | – | 100 to 500
